Measured values reported in patent US10940139B2, “Compounds that interact with the Ras superfamily for the treatment of cancers, inflammatory diseases, rasopathies, and fibrotic disease” (Shy Therapeutics LLC, priority 2017, dated 2021).

These compounds were tested against KRas G12D/Q61H double mutant (Homo sapiens (Human), UniProt P01116, G12D/Q61H) (assay: Ras GTP binding domain inhibition assay (labeled GTP)). Details: 20 μM compound; read-out: % Inhibition at 20 μM KRas G12D Q61H.
Description: Buffer-I: • 50 mM Tris, pH 7.5 • 150 mM NaCl (optional) • 1 mM MgCl2 • 1 mM DTT. • KRas G12D mutant protein was expressed as a His-tagged protein. Purified His-KRas G12D protein was diluted in buffer-I to a final concentration of 3-10 μg/ml. • 200 μl of the diluted His-KRas G12D protein was added to a nickel coated 96 well plate and incubated overnight at 4° C. • The next day, wells were washed 3× in 200 μl of Buffer-I. • Then 200 μl of Buffer-I were added to each well in the presence of 1% DMSO. • Tested compounds were added to the protein-coated wells at a concentration of 20 μM, and incubated for 3 hours at room temperature. While performing IC50 measurements a serial dilution of all tested concentrations was prepared.
Then 22 μl of Cy3-GTP or Cy5-GTP was added to each well. The labeled GTP was incubated for 45 min. at room temperature. • Following GTP incubation, wells were washed 3× in Buffer-I, and 200 μl of Buffer-I were added to each well. • Following washes, the amount of bound labeled-GTP was measured with an Eppendorf AF2200 plate reader.
By substituting KRas G12D mutant protein with KRas G12C mutant, KRas wild type, KRas Q61H mutant, KRas G12D/Q61H double mutant or KRas G12C/Q61H double mutant under the assay conditions described above, KRas G12C mutant KRas wild type, KRas Q61H mutant, KRas G12D/Q61H double mutant and KRas G12C/Q61H double mutant inhibition, respectively, were each determined.

Chain of KRas G12D/Q61H double mutant (P01116-2 other isoform, or with tags, fused parts or gaps G12D/Q61H): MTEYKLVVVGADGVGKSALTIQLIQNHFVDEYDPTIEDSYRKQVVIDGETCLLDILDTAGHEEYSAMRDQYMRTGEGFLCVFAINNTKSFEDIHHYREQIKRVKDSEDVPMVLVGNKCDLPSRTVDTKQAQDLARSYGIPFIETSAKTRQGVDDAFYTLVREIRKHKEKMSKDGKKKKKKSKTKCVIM

Inhibition at 20 µM, 25 to 50%:
Cc1nc(-c2ccccn2)nc(O)c1CCC(=O)NCc1ccccc1F, CN(C(=O)c1ccc(COc2ccccc2F)o1)c1nccs1, O=C(CCCNc1ncccn1)Nc1nnc(-c2ccccn2)[nH]1, O=C(Cc1ccc2c(c1)CCCC2)Nc1nnc(-c2ccccn2)[nH]1, Cc1cc(C)n2nc(CC(=O)N(Cc3ccccc3F)C3CC3)nc2n1, Cc1ccc(S(=O)(=O)Nc2ccc(OS(=O)(=O)N(C)Cc3ccccc3)cc2)cc1, CNC(=O)CNc1nc(-c2ccccn2)nc2scc(-c3ccccc3)c12, Cc1ccc(C)c(NC(=O)c2ccccc2OCCOc2ccccc2)c1, Cc1ccc(OCCSc2nnc(C(C)Oc3ccc(F)cc3)o2)cc1 (stereo not drawn), CCN(Cc1ccc(S(=O)(=O)N(C)C)o1)c1ccccc1, COc1ccc(OC)c(-c2csc(C3CC3)n2)c1, O=c1[nH]c(-c2ncccn2)nc2ccc(-c3cccc(C(F)(F)F)c3)cc12, COc1ccc(-c2nc(C(=O)NC(C)c3ccccn3)cs2)cc1 (stereo not drawn), CCOc1ccc(S(=O)(=O)N(CC(=O)N2CCc3ccccc32)Cc2ccco2)cc1, Cn1c(CNCc2ccccc2OCc2ccccc2)nc2ccccc21, COc1ccc(CC(=O)Nc2nc(-c3ccccn3)cs2)cc1, O=C(c1ccc(-c2ccccc2Cl)o1)N(Cc1cccs1)C1CC1, Cc1noc(CNc2cc(C(F)(F)F)ccc2N2CCCC2)n1, Cc1ccc(-c2cc(C(=O)N(C3CC3)C(C)c3ccco3)on2)cc1 (stereo not drawn), COCCN(c1nc2ccccc2s1)S(=O)(=O)c1ccccc1, CC(Oc1ccc(F)cc1)c1nnc(SCCOc2ccc(F)cc2)o1 (stereo not drawn), COC(=O)c1cccc(CN2CCN(c3cccc(C(F)(F)F)c3)CC2)c1, COc1ccc(CN(Cc2cccs2)C(=O)c2cc3ccccc3o2)cc1OC, Cc1nc(-c2ccccn2)sc1C(=O)NCCNc1cnccn1, COc1ccc(S(=O)(=O)N(CC(=O)N2CCCc3ccccc32)Cc2ccco2)cc1, Cc1cccc(C)c1Oc1ccccc1NCc1nnc(C2CC2)o1, Cc1cc(C)n(-c2ccc(C(=O)Nc3nnc(-c4ccccn4)[nH]3)cn2)n1, FC(F)(F)c1ccc(N2CCCC2)c(NCc2nc(-c3ccco3)no2)c1, NC(=O)c1cc(N2CCN(c3cccc(C(F)(F)F)c3)CC2)nc2ccccc12, Cc1cccc(C(=O)Nc2ccc(OS(=O)(=O)N3CCc4ccccc4C3)cc2)c1, CCC1COCCN1c1nc(-c2ccccn2)nc2scc(-c3ccccc3)c12 (stereo not drawn), Cc1nc(CN(Cc2ccccc2[N+](=O)[O-])C(C)c2ccc(Cl)cc2)oc1C (stereo not drawn), CCCOc1ccc(OCCOC(=O)c2cccnc2SCCOc2ccc(OCCC)cc2)cc1, Cc1nc(-c2ccc(F)cc2)sc1C(=O)NCCN(C)c1ccccc1, CCc1cc(NNC(=O)c2ccc(C)s2)nc(-c2ccccn2)n1, Cc1oc(-c2ccccc2)nc1CN(C)CC(=O)Nc1ccc(N2CCOCC2)cc1, CC(=O)N1CCC(Nc2nc(-c3ccccn3)nc3c2CCC3)C1 (stereo not drawn), Cc1cccc(C)c1Oc1ccccc1NCc1nc(C2CC2)no1, Cc1nc(C2CN(Cc3ccccc3F)CCO2)no1 (stereo not drawn), CC(C)Cc1csc2[nH]c(-c3ccccn3)nc(=O)c12, Cc1cc(C)n(CCCNC(=O)c2cc(S(=O)(=O)N3CCCCC3)ccc2N2CCOCC2)n1, c1ccc(-c2csc3nc(-c4ccccn4)nc(NCc4ccccn4)c23)cc1, COc1ccc(S(=O)(=O)N2CCCCCC2)cc1C(=O)NCCc1ccccc1, O=C1COc2c(cccc2C(=O)Nc2nnc(-c3ccccn3)[nH]2)N1, Cc1cc(NCCNC(=O)c2ccco2)nc(-c2ccccn2)n1, O=C(NCC(=O)N1CCN(C2CC3CCC2C3)CC1)c1ccccn1 (stereo not drawn), COc1ccc(CCNC(=O)c2cc(S(=O)(=O)C3CCCCCC3)ccc2OC)cc1OC, CC1CN(c2nc(-c3ccccn3)nc3c2CCC3)C(C)CN1C (stereo not drawn), CC(C)(C)c1ccc(OCC(=O)N2N=CCC2(O)C(F)(F)F)cc1 (stereo not drawn), CC(C)CCC(=O)Nc1nnc(-c2ccccn2)[nH]1, COc1ccc(OCCSc2nnc(C(C)Oc3ccc(F)cc3)o2)cc1 (stereo not drawn), O=C(Nc1nc(-c2cccnc2)cs1)c1ccccn1, O=S(=O)(c1ccccc1)N(CCOc1cccc(Cl)c1)c1nccs1, O=c1[nH]c(-c2ncccn2)nc2cc(-c3cccc(Cl)c3)sc12, CN1CC(Nc2nc(-c3ccccn3)nc3c2CCC3)CCC1=O (stereo not drawn), N#Cc1ccc(-c2nnc(CN3CCOc4ccccc4C3)o2)cc1, CCc1cc(CNc2cc(C)c([N+](=O)[O-])c(C(=O)OC)c2)on1, COc1ccc(-c2csc(C3CC3)n2)cc1Cl, Cc1sc(C2CC2)nc1-c1ccc(F)c(F)c1, COc1ccccc1CN(Cc1cccs1)C(=O)c1ccc(Br)o1, O=c1[nH]c(-c2ccccn2)nc2ccc(F)cc12, Cc1cccc(-c2nnc(NC(=O)C3Cc4cc(F)ccc4O3)[nH]2)n1 (stereo not drawn), O=C(c1cc(-c2ccccc2)nn1-c1ccccc1)N(Cc1nnc(-c2ccccc2Cl)o1)C1CC1, Cc1cccc(C)c1OCCn1c(CN2CCCCC2)nc2ccccc21, Cc1nc(-c2ccccn2)nc(O)c1CCC(=O)N(C)c1cccc(C#N)c1, CCc1ccc(-c2nc(C)c(C(=O)N(Cc3ccco3)C3CCS(=O)(=O)C3)s2)cc1 (stereo not drawn), COc1ccc(CC(=O)Nc2nc(-c3ccccn3)cs2)cc1OC, COc1ccc(NC(=O)CN(C)Cc2coc(-c3cccs3)n2)cc1, O=c1[nH]c(-c2ccccn2)nc2[nH]nnc12, COc1ccccc1CN(Cc1cccs1)C(=O)c1ccc(C#N)cc1, COC(=O)c1ccc2c(=O)[nH]c(-c3ccccn3)nc2c1, CCCOc1ccc(C(F)(F)F)cc1NCc1ncc(C)o1, COc1ccccc1CN(Cc1cccs1)C(=O)c1ccc(N2CCCS2(=O)=O)cc1, CCc1noc(CN(C)c2nc(-c3ccccn3)nc3c2CCC3)n1, Cc1noc(C)c1CN(C(=O)c1ccc(COc2ccc(F)cc2)o1)c1ccccc1, CCc1noc(CNc2cc(C(=O)OC)cc(C(F)(F)F)c2)n1, Cc1cccc2c(=O)[nH]c(-c3ccccn3)nc12, O=C(Nc1nnc(-c2ccccn2)[nH]1)c1ccc(NC2CC2)nc1, Nc1nc(-c2ccccn2)nn1C(=O)c1ccc(N2CCNC2=O)cc1, O=S(=O)(Oc1c(Cl)cc(Cl)c2cccnc12)N1CCCCCC1, Cc1nc(C2CCCN2c2nccc(C(F)(F)F)n2)no1 (stereo not drawn), O=C(c1cnc(-c2ccccc2)s1)N1CCC(c2ccccc2)CC1, COc1ccccc1OCc1ccc(C(=O)N2CCCc3c(F)cc(F)cc32)o1, CCNC(=O)CNc1nc(-c2ccccn2)nc(C)c1C, Cc1nn(C)c(C)c1CC(=O)Nc1nnc(-c2ccccn2)[nH]1, O=C(c1cc(-c2ccccc2)nc2ccccc12)N1N=CCC1(O)C(F)(F)F (stereo not drawn), Cc1cc(N2CCN(c3cccc(C(F)(F)F)c3)CC2)n2ncnc2n1, Cn1ccnc1COc1ccc(C(=O)Nc2nnc(-c3ccccn3)[nH]2)cc1, CCOC(=O)C1CCCC1N(Cc1cccc([N+](=O)[O-])c1)C1CC1 (stereo not drawn), CN(C)c1ccccc1NCc1cc(Br)c2c(c1)OCCCO2, COc1ccc(CCC(=O)Nc2nnc(-c3ccccn3)[nH]2)cc1OC, CCn1c(SCc2csc(-c3cccc(OC)c3OC)n2)nc2cc(S(N)(=O)=O)ccc21, O=C(NCc1ccccn1)c1ccn(-c2cccc(Cl)c2)n1, O=C(Nc1nc(-c2ccccn2)cs1)c1cccc(-n2cnnn2)c1, COc1ccc(CN(Cc2cccs2)C(=O)c2oc3ccccc3c2C)cc1OC, COc1ccnc(CN2CCOC(C)(c3ccccc3)C2)c1OC (stereo not drawn)
